Experimental findings from ChEMBL document CHEMBL1201862, “PubChem BioAssay data set” (2004) are described below.

Each structure is given as a SMILES string. Values joined by “and” are separate entries in the source; they are usually repeats but may differ in a detail not shown here. Equal entries are not always repeated.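 Step 1: Grow cells in 96-well plates. Step 2: Expose to compound for 48 hours at 5 concentrations. Step 3: Interpolate endpoints linearly; if unreached, use highest concentration. GI50 is the concentration that inhibits growth by half.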 Active and inactive are the calls of the source. Cut-off read from the data, not from the text of the source: active = GI50 up to about 1.1 µM and inactive = higher.

Some test systems named below: DU-145; RPMI-8226; KM12; HT-29; SN12C; SK-OV-3; 786-0; NCI-H23; PC-3; SR; SF-295; MOLT-4; SF-539; M14; SNB-75; OVCAR-8; OVCAR-4; HOP-62; SF-268; MDA-MB-231.
Holding throughout (experiment): NCI tumour cell line growth inhibition, 48 h

Consider `COc1cc2c(c(OC)c1OC)-c1ccc(SC)cc1C(=O)CC2`, for which the GI50 in the assay with DU-145 is < 0.01 µM (active); in the assay on RPMI-8226 it was < 0.01 µM (active); in the assay on KM12, < 0.01 µM (active); in the assay on HT-29 it was < 0.01 µM (active); with SN12C, < 0.0421 µM (active); with SK-OV-3 it was < 0.01 µM (active). The GI50 was < 0.01 µM (active) in the assay on 786-0; < 0.01 µM (active) with NCI-H23; < 0.01 µM (active) in the assay with PC-3; < 0.0213 µM (active) in the assay on SR; < 0.01 µM (active) in the assay with SF-295; < 0.01 µM (active) in the assay on MOLT-4. In addition, the GI50 is < 0.01 µM (active) in the assay on SF-539; < 0.01 µM (active) in the assay with M14; 1 µM (active) in the assay on SNB-75; < 0.01 µM (active) with OVCAR-8; 7.76 µM (inactive) in the assay on OVCAR-4.
`CC(=O)c1c(-c2cccc3ccccc23)c(C#N)c(=S)n(C2OC(CO)C(O)C(O)C2O)c1C` (stereo not given): the GI50 with DU-145 is > 100 µM (inactive); in the assay with RPMI-8226, 53.2 µM (inactive); in the assay on KM12, 79.1 µM (inactive); with HT-29, > 100 µM (inactive); in the assay with SN12C, 81.3 µM (inactive); in the assay with HOP-62 it was 54.8 µM (inactive). In addition, the GI50 in the assay with SK-OV-3 is > 100 µM (inactive); with 786-0 it was > 100 µM (inactive); in the assay with NCI-H23, > 100 µM (inactive) and 52.2 µM (inactive); in the assay with PC-3 it was > 100 µM (inactive); in the assay with SF-295, > 100 µM (inactive); in the assay on MOLT-4, 38.9 µM (inactive) and 49.3 µM (inactive). For the same compound, the GI50 with SF-268, in the assay on SNB-75, in the assay on OVCAR-8 and in the assay on OVCAR-4 was > 100 µM (inactive) each time.
With `CCN(CC)C(=S)SS(=O)(=O)c1cccc(N)c1`, the GI50 in the assay with DU-145, with RPMI-8226, in the assay with KM12, in the assay on HT-29, with SN12C and in the assay on HOP-62 was > 100 µM (inactive) throughout. Besides, the GI50 with SK-OV-3, with 786-0, in the assay on MDA-MB-231, with NCI-H23, in the assay on SR and in the assay on SF-295 was > 100 µM (inactive) throughout. Moreover, the GI50 in the assay with MOLT-4, in the assay on SF-539, in the assay on SF-268, in the assay on M14, in the assay on OVCAR-8 and with OVCAR-4 was > 100 µM (inactive) in each case.
Take `Cc1ccc(NC=O)c(-c2c(N)[nH]c(=S)[nH]c2=O)c1`: the GI50 in the assay with DU-145, with RPMI-8226, in the assay on KM12, with HT-29, in the assay on SN12C and with HOP-62 was > 100 µM (inactive) each time. In addition, the GI50 is 12.3 µM (inactive) in the assay on SK-OV-3; > 100 µM (inactive) in the assay on 786-0; > 100 µM (inactive) in the assay on MDA-MB-231; > 100 µM (inactive) with NCI-H23; > 100 µM (inactive) in the assay with SR; > 100 µM (inactive) with SF-295. The GI50 in the assay on MOLT-4, in the assay on SF-539, with SF-268, in the assay on M14, in the assay with SNB-75 and in the assay on OVCAR-8 was > 100 µM (inactive) each time.
With `COc1cccc(/C=N/NC(=O)CN(C)C)c1O`, the GI50 with DU-145, in the assay with KM12, with HT-29, with SN12C, with HOP-62 and in the assay with SK-OV-3 was > 100 µM (inactive) in each case. Moreover, the GI50 in the assay on 786-0, with NCI-H23, in the assay on PC-3, in the assay on SF-295, in the assay on MOLT-4 and in the assay on SF-539 was > 100 µM (inactive) throughout. Besides, the GI50 with SF-268 is > 100 µM (inactive); in the assay with M14, > 100 µM (inactive); with SNB-75 it was < 0.01 µM (active); in the assay on OVCAR-8, > 100 µM (inactive); in the assay with OVCAR-4 it was > 100 µM (inactive).
Regarding `N[C@@H]1c2c(Br)sc(Br)c2[C@H](O)[C@@H]1O`, the GI50 in the assay on DU-145, in the assay with KM12, in the assay with HT-29, in the assay with SN12C, in the assay with SK-OV-3 and in the assay with 786-0 was > 100 µM (inactive) in each case. Besides, the GI50 with MDA-MB-231, in the assay with NCI-H23, with PC-3, in the assay with SF-295, in the assay with MOLT-4 and in the assay on SF-539 was > 100 µM (inactive) each time. In addition, the GI50 in the assay with SF-268, in the assay with M14, with SNB-75, in the assay on OVCAR-8 and in the assay on OVCAR-4 was > 100 µM (inactive) throughout.
In the case of `N#Cc1ccccc1NC(=O)C(=O)c1c(O)c2ccccc2oc1=O`, the GI50 in the assay with RPMI-8226, with KM12, in the assay with HT-29, in the assay on SN12C, with HOP-62 and in the assay on SK-OV-3 was > 100 µM (inactive) each time. Also, the GI50 in the assay on 786-0, in the assay with MDA-MB-231, in the assay with NCI-H23, with PC-3, with SF-295 and in the assay with SF-539 was > 100 µM (inactive) in each case. In addition, the GI50 in the assay on SF-268, in the assay with M14, in the assay with SNB-75, in the assay with OVCAR-8 and with OVCAR-4 was > 100 µM (inactive) in each case.
In the case of `COc1ccc(C2SCC(=O)N2NC(=O)c2ccc(NC(C)=O)cc2)c(OC)c1` (stereo not given), the GI50 in the assay with DU-145, in the assay with RPMI-8226, in the assay on KM12, with HT-29, in the assay with SN12C and in the assay with HOP-62 was > 100 µM (inactive) in each case. The GI50 in the assay on SK-OV-3, in the assay on 786-0, in the assay on MDA-MB-231, with NCI-H23, with SF-295 and in the assay with MOLT-4 was > 100 µM (inactive) each time. The GI50 in the assay on SF-539 is > 100 µM (inactive); in the assay with SF-268, > 100 µM (inactive); in the assay with M14 it was 69.8 µM (inactive); with SNB-75, > 100 µM (inactive); in the assay on OVCAR-8, > 100 µM (inactive); in the assay with OVCAR-4, > 100 µM (inactive).
For the compound `CC(C)C[P+](c1ccccc1)(c1ccccc1)c1ccccc1`, the GI50 in the assay on DU-145 is 6.95 µM (inactive); in the assay on RPMI-8226, < 0.01 µM (active); in the assay with KM12, 1.79 µM (inactive); in the assay with HT-29 it was 3.64 µM (inactive); in the assay on SN12C it was 12.3 µM (inactive); with HOP-62 it was 13.7 µM (inactive). The GI50 is 19.8 µM (inactive) in the assay with SK-OV-3; 41.5 µM (inactive) with 786-0; 31.8 µM (inactive) in the assay with MDA-MB-231; 7.4 µM (inactive) with NCI-H23; 13.2 µM (inactive) in the assay on SF-295; 3.57 µM (inactive) with MOLT-4. For the same compound, the GI50 with SF-539 was 14.8 µM (inactive); in the assay on SF-268, 10.3 µM (inactive); in the assay on M14 it was 8.41 µM (inactive); in the assay on SNB-75 it was 13.1 µM (inactive); in the assay with OVCAR-4, 12.1 µM (inactive).
As for `C=C1C(=O)C23C(O)CC4C5(C)CCCC4(C(O)OC5)C2C(OC(C)=O)CC1C3O` (stereo not given), the GI50 in the assay on RPMI-8226 is 3.64 µM (inactive); in the assay on KM12, 9.02 µM (inactive); with HT-29, 5 µM (inactive); with SN12C, 10.6 µM (inactive); in the assay on HOP-62, 17.5 µM (inactive); in the assay with SK-OV-3, 19.7 µM (inactive). The GI50 is 6.31 µM (inactive) in the assay on 786-0; 5.41 µM (inactive) with NCI-H23; 3.01 µM (inactive) in the assay on SR; 21.5 µM (inactive) with SF-295; 3.66 µM (inactive) with MOLT-4; 10.9 µM (inactive) in the assay on SF-539. Moreover, the GI50 was 13.3 µM (inactive) with SF-268; 3.41 µM (inactive) in the assay on M14; 4.28 µM (inactive) with SNB-75; 2.75 µM (inactive) with OVCAR-8; 14.3 µM (inactive) with OVCAR-4.
As for `CC(=O)N/C=C/c1cc(O)ccc1O`, the GI50 with DU-145 was 41.3 µM (inactive); in the assay on RPMI-8226, 40.3 µM (inactive); in the assay on KM12, 37.7 µM (inactive); in the assay on HT-29, 32.1 µM (inactive); in the assay on SN12C, 29.9 µM (inactive); with HOP-62, > 41 µM (inactive). Moreover, the GI50 in the assay with SK-OV-3 was > 58.5 µM (inactive); in the assay on 786-0, 33.2 µM (inactive); with NCI-H23, 34.4 µM (inactive); with SR, 22 µM (inactive); in the assay with SF-295, 32.3 µM (inactive); with MOLT-4, 11.9 µM (inactive). Also, the GI50 with SF-539 is 35.5 µM (inactive); in the assay on SF-268, 31.8 µM (inactive); in the assay on M14, 33.3 µM (inactive); in the assay with SNB-75 it was 48.3 µM (inactive); in the assay on OVCAR-8, 45.7 µM (inactive); in the assay on OVCAR-4 it was 32.6 µM (inactive).
